Laboratory results as given in patent US11447466B2, “Substituted indole compounds useful as inhibitors of TLR7/8/9” (BRISTOL-MYERS SQUIBB COMPANY, priority 2017, dated 2022).

Key:
Format in all cases: cell-based
human TLR8 = target: T1, human TLR8 (Homo sapiens, UniProt Q9NR97); assay: TLR8 inhibition reporter assay (HEK-Blue SEAP reporter, R848 stimulation); details: HEK-Blue cells overexpressing human TLR8, SEAP reporter, R848 15.9 μM, 22 hour incubation
T1 construct: host or cells: HEK-Blue cells
T1 sequence (Q9NR97 27-1041): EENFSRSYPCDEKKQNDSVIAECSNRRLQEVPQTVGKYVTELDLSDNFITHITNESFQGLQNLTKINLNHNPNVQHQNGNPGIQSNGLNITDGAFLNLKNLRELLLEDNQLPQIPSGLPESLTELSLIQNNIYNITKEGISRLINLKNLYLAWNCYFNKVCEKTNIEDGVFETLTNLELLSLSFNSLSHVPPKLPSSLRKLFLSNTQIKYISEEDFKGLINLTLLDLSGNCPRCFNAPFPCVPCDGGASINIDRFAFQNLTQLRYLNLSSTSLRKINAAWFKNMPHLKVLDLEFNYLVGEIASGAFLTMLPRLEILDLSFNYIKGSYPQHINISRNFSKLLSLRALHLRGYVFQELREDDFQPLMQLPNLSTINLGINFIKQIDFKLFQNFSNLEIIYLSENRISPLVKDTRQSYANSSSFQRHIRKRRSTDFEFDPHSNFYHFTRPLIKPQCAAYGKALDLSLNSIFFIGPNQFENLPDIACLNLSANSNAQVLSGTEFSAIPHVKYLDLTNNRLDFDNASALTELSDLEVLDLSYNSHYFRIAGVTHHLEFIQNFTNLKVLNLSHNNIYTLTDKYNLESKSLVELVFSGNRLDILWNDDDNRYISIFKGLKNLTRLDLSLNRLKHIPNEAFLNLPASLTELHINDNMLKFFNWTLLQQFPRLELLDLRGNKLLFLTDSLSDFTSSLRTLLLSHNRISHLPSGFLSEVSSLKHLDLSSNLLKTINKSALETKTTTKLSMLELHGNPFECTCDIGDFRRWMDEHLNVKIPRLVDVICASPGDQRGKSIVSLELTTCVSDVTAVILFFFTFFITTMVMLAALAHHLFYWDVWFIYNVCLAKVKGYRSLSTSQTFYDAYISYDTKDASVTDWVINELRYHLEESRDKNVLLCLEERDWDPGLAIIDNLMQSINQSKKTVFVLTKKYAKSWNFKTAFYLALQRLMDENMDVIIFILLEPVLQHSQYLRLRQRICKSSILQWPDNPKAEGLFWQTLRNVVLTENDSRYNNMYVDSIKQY
How it was run: (§1)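 Compound treatment: 30 min, RT, 0.05 nM–50 μM final. Agonist: TLR7 gardiquimod 7.5 μM; TLR8 R848 15.9 μM; TLR9 ODN2006 5 nM. Incubation 22 h, 37 °C, 5% CO2. Readout SEAP, HEK-Blue Detection.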

human TLR7 = target: T2, human TLR7 (Homo sapiens, UniProt Q9NYK1); assay: TLR7 inhibition reporter assay (HEK-Blue SEAP reporter, gardiquimod stimulation); details: HEK-Blue cells overexpressing human TLR7, SEAP reporter, gardiquimod 7.5 μM, 22 hour incubation
T2 construct: host or cells: HEK-Blue cells
T2 sequence (Q9NYK1 27-1049): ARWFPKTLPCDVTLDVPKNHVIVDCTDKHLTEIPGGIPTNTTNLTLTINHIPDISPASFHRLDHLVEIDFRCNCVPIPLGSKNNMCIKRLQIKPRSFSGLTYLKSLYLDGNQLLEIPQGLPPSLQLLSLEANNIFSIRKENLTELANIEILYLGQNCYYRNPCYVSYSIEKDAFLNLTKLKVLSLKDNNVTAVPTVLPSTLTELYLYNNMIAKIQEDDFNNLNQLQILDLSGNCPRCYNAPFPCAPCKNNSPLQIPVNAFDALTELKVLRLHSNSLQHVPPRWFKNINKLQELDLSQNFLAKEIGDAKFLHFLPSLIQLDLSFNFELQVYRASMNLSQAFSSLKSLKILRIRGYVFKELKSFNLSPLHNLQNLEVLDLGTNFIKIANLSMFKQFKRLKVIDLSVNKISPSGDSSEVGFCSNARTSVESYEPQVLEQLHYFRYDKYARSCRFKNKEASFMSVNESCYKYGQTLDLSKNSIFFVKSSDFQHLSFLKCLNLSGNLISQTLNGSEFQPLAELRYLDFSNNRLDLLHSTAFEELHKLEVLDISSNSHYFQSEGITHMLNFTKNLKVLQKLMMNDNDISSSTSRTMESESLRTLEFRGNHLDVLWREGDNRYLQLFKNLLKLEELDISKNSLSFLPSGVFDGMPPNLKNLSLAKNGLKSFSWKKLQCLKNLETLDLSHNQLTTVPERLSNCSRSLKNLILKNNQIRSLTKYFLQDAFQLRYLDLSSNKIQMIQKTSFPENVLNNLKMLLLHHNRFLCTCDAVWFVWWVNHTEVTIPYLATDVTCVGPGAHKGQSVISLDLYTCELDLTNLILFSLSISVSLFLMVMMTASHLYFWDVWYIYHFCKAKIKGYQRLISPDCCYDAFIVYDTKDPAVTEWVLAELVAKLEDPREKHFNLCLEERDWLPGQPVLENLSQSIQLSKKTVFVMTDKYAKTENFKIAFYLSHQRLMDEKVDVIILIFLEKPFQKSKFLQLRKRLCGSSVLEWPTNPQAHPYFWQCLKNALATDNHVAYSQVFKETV
How it was run: as §1

human TLR9 = target: T3, human TLR9 (Homo sapiens, UniProt Q9NR96); assay: TLR9 inhibition reporter assay (HEK-Blue SEAP reporter, ODN2006 stimulation); details: HEK-Blue cells overexpressing human TLR9, SEAP reporter, ODN2006 5 nM, 22 hour incubation
T3 construct: host or cells: HEK-Blue cells
T3 sequence (Q9NR96 26-1032): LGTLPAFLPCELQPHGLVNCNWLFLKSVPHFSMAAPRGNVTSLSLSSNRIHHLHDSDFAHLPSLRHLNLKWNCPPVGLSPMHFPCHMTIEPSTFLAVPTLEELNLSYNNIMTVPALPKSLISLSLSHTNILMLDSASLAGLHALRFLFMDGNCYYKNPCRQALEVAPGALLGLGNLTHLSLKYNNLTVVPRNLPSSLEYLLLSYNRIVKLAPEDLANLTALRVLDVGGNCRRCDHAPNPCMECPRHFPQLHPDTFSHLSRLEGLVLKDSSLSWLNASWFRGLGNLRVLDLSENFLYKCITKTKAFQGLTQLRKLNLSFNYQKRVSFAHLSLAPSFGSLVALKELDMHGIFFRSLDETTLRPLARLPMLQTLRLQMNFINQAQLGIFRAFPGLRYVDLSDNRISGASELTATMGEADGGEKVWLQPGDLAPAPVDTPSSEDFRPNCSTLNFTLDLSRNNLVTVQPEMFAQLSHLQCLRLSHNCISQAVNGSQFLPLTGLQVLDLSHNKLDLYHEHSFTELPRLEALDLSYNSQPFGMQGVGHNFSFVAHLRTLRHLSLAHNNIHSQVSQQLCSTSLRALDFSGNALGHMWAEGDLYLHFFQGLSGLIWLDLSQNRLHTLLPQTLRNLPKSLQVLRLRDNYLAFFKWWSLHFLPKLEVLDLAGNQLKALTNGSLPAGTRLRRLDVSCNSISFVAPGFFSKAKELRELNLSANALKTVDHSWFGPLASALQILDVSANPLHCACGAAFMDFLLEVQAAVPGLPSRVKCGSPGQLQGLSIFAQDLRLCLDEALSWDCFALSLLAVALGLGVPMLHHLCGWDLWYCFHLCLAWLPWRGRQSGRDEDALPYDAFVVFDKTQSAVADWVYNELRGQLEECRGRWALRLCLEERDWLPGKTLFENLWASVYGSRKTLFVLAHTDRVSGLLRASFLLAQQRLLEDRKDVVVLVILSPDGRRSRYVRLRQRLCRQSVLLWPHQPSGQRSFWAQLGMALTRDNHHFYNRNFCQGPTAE
How it was run: as §1

IC50 (human TLR8) [nM] | IC50 (human TLR7) [nM] | IC50 (human TLR9) [µM] | SMILES
16.9 | 11.1 | 7.05 | COCc1cc(-c2[nH]c3ccc(C4CCN(C5CCOCC5)CC4)cc3c2C(C)C)cn(C)c1=O [Example 345, 5-(3-isopropyl-5-(1-(tetrahydro-2H-pyran-4-yl)piperidin-4-yl)-1H-indol-2-yl)-3-(methoxymethyl)-1-methylpyridin-2(1H)-one]
86.8 | 37.9 | 16.7 | COCc1cc(-c2[nH]c3ccc(C4CCN(C5COC5)CC4)cc3c2C(C)C)cn(C)c1=O [Example 346, 5-(3-isopropyl-5-(1-(oxetan-3-yl)piperidin-4-yl)-1H-indol-2-yl)-3-(methoxymethyl)-1-methylpyridin-2(1H)-one]
28.6 | 7.2 | 13.6 | COCc1cc(-c2[nH]c3ccc(C4CCN(C(C)C)CC4)cc3c2C(C)C)cn(C)c1=O [Example 347, 5-(3-isopropyl-5-(1-isopropylpiperidin-4-yl)-1H-indol-2-yl)-3-(methoxymethyl)-1-methylpyridin-2(1H)-one]
25.3 | 7.1 | 10.8 | CCCN1CCC(c2ccc3[nH]c(-c4cc(COC)c(=O)n(C)c4)c(C(C)C)c3c2)CC1 [Example 348, 5-(3-isopropyl-5-(1-propylpiperidin-4-yl)-1H-indol-2-yl)-3-(methoxymethyl)-1-methylpyridin-2(1H)-one]
72.6 | 14.5 | 0.782 | COCCN1CCC(c2ccc3[nH]c(-c4cc(-c5ccc(C)nc5)c(=O)n(C)c4)c(C(C)C)c3c2)CC1 [Example 349, 5-(3-isopropyl-5-(1-(2-methoxyethyl)piperidin-4-yl)-1H-indol-2-yl)-1,6′-dimethyl-[3,3′-bipyridin]-2(1H)-one]
1.4 | 14.4 | 2.14 | COCCN1CCC(c2ccc3[nH]c(-c4cc(-c5cnn(C)c5)c(=O)n(C)c4)c(C(C)C)c3c2)CC1 [Example 350, 5-(3-isopropyl-5-(1-(2-methoxyethyl)piperidin-4-yl)-1H-indol-2-yl)-1-methyl-3-(1-methyl-1H-pyrazol-4-yl)pyridin-2(1H)-one]
135 | 78.5 | 11.9 | COCc1cc(-c2[nH]c3ccc(C4CCN(CC(=O)N(C)C)CC4)cc3c2C(C)C)cn(C)c1=O [Example 351, 2-(4-(3-isopropyl-2-(5-(methoxymethyl)-1-methyl-6-oxo-1,6-dihydropyridin-3-yl)-1H-indol-5-yl)piperidin-1-yl)-N,N-dimethylacetamide]
31.5 | 21.5 | 2.42 | C=Cc1cc(-c2[nH]c3ccc(C4CCN(CC(=O)N(C)C)CC4)cc3c2C(C)C)cn(C)c1=O [Example 352, 2-(4-(3-isopropyl-2-(1-methyl-6-oxo-5-vinyl-1,6-dihydropyridin-3-yl)-1H-indol-5-yl)piperidin-1-yl)-N,N-dimethylacetamide]
